Experimental data reported in patent US20080287467A1, “Therapeutic Agent for Respiratory Diseases” (priority 2004, published 2008).
Where two headings read alike, the source gives them in different places.

Tested on: swine bronchial smooth muscle cells
Assay: Patch cramp (whole-cell) measurement of membrane current and membrane potential, ATP-induced inward current
Format: cell-based
Description: In the present specification, the patch cramp method is a method including allowing a glass micropipette (patch electrode) to attach tightly to cell membrane at a high resistance in giga-ohms (GΩ) or more and then measuring ion currents in conditions that a very small membrane region (patch membrane) on the top opening of the electrode is electrically isolated from other regions. In particular, the inventors measured and analyzed electric currents by the whole-cell mode including opening a hole by breaking the patch membrane to record ion current flowing through the whole cell membrane except the broken patch membrane.
Swine bronchial smooth muscle tissue was finely chopped and incubated at 37° C. for 40 minutes, using collagenase and papain, to isolate the cells.

## ivermectin
FIG. 2
  enhancement of the ATP-induced inward current: 3.5 fold

## Cc1ccc(C(=O)Nc2ccc(S(=O)(=O)O)c3cc(S(=O)(=O)O)cc(S(=O)(=O)O)c23)cc1NC(=O)c1cccc(NC(=O)Nc2cccc(C(=O)Nc3cc(C(=O)Nc4ccc(S(=O)(=O)O)c5cc(S(=O)(=O)O)cc(S(=O)(=O)O)c45)ccc3C)c2)c1 [suramin]
Concentration not given
  suppression of the ATP-induced inward current: No suppression

## COc1ccc(CCCOC(Cn2ccnc2)c2ccc(OC)cc2)cc1 (stereo not shown) [SKF 96365]
  suppression of the ATP-induced inward current: about 50%

## Nc1ncnc2c1ncn2[C@@H]1O[C@H](COP(=O)(O)OP(=O)(O)OP(=O)(O)O)[C@@H](O)[C@H]1O [ATP, adenosine-5′-triphosphate]
Electric current fixed, depolarized from −40 mV
  cellular membrane potential after depolarization due to ATP: −20 mV
Membrane potential maintained at −40 mV
  membrane current on ATP administration: inward current passed

## COc1ccc2c(c1)CC[C@@H]1[C@@H]2CC[C@]2(C)[C@@H](NCCCCCCN3C(=O)C=CC3=O)CC[C@@H]12 [U-73122]
Treatment with 100 μM, subsequent ATP dosing
  suppression of the ATP-induced inward current: no suppression

## Cc1nc(N=Nc2ccc(S(=O)(=O)O)cc2S(=O)(=O)O)c(COP(=O)(O)O)c(C=O)c1O [PPADS, pyridoxal phosphate-6-azophenyl-2′,4′-disulfonic acid]
Concentration not given
  suppression of the ATP-induced inward current: No suppression
